Source: patent US20240270821A1, “GIP/GLP1/GCG TRI-RECEPTOR AGONISTS AND USES THEREOF” (priority 2023, published 2024)
Starred links: 1 amine or outer side, 2 acyl side, 3 side chain; linkers in the order of their positions; H or OH if unused. Non-standard residues stand in square brackets, D forms with d. Groups on a side chain read outwards from the residue. *: point of attachment. C18 diacid = O=C(O)CCCCCCCCCCCCCCCCC(=O)*; αMePhe(2-F) = C[C@](N)(Cc1ccccc1F)C(=O)O; γGlu = O=C(O)[C@H](CCC(=O)[*:2])N[*:1]; αMeY = C[C@](N)(Cc1ccc(O)cc1)C(=O)O; 4Pal = N[C@@H](Cc1ccncc1)C(=O)O; αMeL = CC(C)C[C@](C)(N)C(=O)O; αMeS = C[C@](N)(CO)C(=O)O; Orn = NCCC[C@H](N)C(=O)O; Aib = CC(C)(N)C(=O)O

Experiments:
Assay type in all cases: cell-based
human GcgR = human GcgR (Homo sapiens, UniProt P47871); test: Functional cAMP activity in the presence of 1% HSA; conditions: read-out: cAMP Rel EC50, hGcgR
human GcgR, sequence (P47871 26-477): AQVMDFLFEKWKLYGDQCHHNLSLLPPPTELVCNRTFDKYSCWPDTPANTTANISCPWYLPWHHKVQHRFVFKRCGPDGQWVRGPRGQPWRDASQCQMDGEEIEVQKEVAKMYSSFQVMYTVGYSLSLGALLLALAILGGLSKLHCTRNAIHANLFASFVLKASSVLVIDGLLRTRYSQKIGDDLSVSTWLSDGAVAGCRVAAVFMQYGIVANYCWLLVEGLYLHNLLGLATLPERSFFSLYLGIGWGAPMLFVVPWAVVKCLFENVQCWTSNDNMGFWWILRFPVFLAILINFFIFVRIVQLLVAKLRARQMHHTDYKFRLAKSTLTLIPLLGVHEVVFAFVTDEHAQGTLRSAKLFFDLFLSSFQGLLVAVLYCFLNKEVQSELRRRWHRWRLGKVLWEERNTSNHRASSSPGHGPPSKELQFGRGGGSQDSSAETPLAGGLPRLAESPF

hGcgR = hGcgR (Homo sapiens, UniProt P47871); test: Functional cAMP activation in the presence of 0.1% casein (no HSA); conditions: read-out: Relative cAMP EC50, hGcgR;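 further: intracellular cAMP rise after 30 min at 37 °C, read by HTRF against a cAMP standard curve, scaled from buffer only (0%) to maximal control ligand response (100%)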
hGcgR, sequence (P47871 26-477): as above

hGLP-1R [1] = molecular target: T1, hGLP-1R (Homo sapiens, UniProt P43220); test: as above; conditions: read-out: Relative cAMP EC50, hGLP-1R;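 further: intracellular cAMP rise after 30 min at 37 °C read by HTRF, normalized between buffer only (0%) and maximal control ligand (100%), four-parameter variable-slope fit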
T1 sequence (P43220 24-463): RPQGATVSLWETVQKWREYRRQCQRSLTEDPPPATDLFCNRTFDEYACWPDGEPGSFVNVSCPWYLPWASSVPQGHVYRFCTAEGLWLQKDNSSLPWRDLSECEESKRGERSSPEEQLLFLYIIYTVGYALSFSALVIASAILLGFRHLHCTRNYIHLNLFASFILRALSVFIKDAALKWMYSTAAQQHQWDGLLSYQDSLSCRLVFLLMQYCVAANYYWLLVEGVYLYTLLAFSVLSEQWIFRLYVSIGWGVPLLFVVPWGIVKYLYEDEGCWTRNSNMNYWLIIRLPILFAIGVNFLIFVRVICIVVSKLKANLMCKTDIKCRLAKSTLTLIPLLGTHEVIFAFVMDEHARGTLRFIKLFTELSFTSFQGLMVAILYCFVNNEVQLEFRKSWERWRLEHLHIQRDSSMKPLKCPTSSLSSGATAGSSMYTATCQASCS

hGIPR [2] = molecular target: T2, hGIPR (Homo sapiens, UniProt P48546); test: Functional cAMP activity in the presence of 1% HSA; conditions: read-out: cAMP Rel EC50, hGIPR
T2 sequence (P48546 22-466): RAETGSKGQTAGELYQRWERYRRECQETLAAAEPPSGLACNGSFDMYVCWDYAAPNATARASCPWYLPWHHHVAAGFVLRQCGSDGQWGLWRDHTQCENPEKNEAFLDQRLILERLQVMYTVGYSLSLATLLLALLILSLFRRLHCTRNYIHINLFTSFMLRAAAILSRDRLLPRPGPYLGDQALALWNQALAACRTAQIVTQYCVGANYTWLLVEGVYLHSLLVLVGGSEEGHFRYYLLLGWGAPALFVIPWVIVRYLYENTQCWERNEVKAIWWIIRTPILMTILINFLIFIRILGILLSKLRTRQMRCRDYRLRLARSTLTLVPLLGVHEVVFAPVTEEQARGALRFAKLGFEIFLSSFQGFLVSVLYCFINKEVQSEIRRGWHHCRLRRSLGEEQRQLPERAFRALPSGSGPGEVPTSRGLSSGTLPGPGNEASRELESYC

hGLP-1R [3] = molecular target: T1, hGLP-1R; test: Functional cAMP activity in the presence of 1% HSA; conditions: read-out: cAMP Rel EC50, hGLP-1R
hGIPR [4] = molecular target: T2, hGIPR; test: Functional cAMP activation in the presence of 0.1% casein (no HSA); conditions: read-out: Relative cAMP EC50, hGIPR;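 on Relative cAMP EC50, hGIPR: intracellular cAMP rise after 30 min at 37 °C read by HTRF against a standard curve, scaled between buffer alone (0%) and top control ligand concentration (100%), four-parameter fit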;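 on Relative cAMP EC50, hGLP-1R: intracellular cAMP rise after 30 min at 37 °C read by HTRF, normalized between buffer only (0%) and maximal control ligand (100%), four-parameter variable-slope fit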

Substance	EC50 (human GcgR)	EC50 (hGcgR)	EC50 (hGLP-1R [1])	EC50 (hGIPR [2])	EC50 (hGLP-1R [3])	EC50 (hGIPR [4])
H-Y[Aib]QGT[αMePhe(2-F)]TSD[4Pal][αMeS]I[αMeL]LD[Orn]K([γGlu-Glu-C18 diacid])AQ[Aib][Orn]FI[dE][αMeY]LSEGGPSSGEPPPSGTE-NH2 [Example 565]	1770 nM	10.3 nM	1.24 nM	21.9 nM	204 nM	0.107 nM
H-Y[Aib]QGT[αMePhe(2-F)]TSD[4Pal][αMeS]I[αMeL]LD[Orn]K([γGlu-Glu-C18 diacid])AQ[Aib][Orn]FI[dE][αMeY]LSEGGPSSGEPPPSGTEE-NH2 [Example 566]	1780 nM	7.18 nM	1.3 nM	30.1 nM	252 nM	0.137 nM
H-Y[Aib]QGT[αMePhe(2-F)]TSD[4Pal][αMeS]I[αMeL]LD[Orn]K([γGlu-γGlu-C18 diacid])AA[Aib]EFI[dE][αMeY]LIEGGPSSGAPPPSGGGE-NH2 [Example 747]	169 nM	1.71 nM	0.229 nM	0.651 nM	20.3 nM	0.00955 nM
H-Y[Aib]QGT[αMePhe(2-F)]TSD[4Pal][αMeS]I[αMeL]LD[Orn]K([γGlu-γGlu-C18 diacid])AA[Aib]EFI[dE][αMeY]LVEGGPSSGEPPPSGS-NH2 [Example 695]	164 nM	1.93 nM	0.254 nM	0.772 nM	19.5 nM	0.0136 nM
H-Y[Aib]QGT[αMePhe(2-F)]TSD[4Pal][αMeS]I[αMeL]LD[Orn]K([γGlu-γGlu-C18 diacid])AQ[Aib]NFI[dE][αMeY]LIEGGPSSGEPEPEEG-NH2 [Example 474]	166 nM	3.88 nM	0.236 nM	0.743 nM	10.6 nM	0.0125 nM
H-Y[Aib]QGT[αMePhe(2-F)]TSD[4Pal][αMeS]I[αMeL]LD[Orn]K([γGlu-γGlu-C18 diacid])AQ[Aib]NFI[dE][αMeY]LIEGGPSSGEPEPSEG-NH2 [Example 473]	311 nM	2.72 nM	0.173 nM	1.11 nM	11.4 nM	0.0101 nM
H-Y[Aib]QGT[αMePhe(2-F)]TSD[4Pal][αMeS]I[αMeL]LD[Orn]K([γGlu-γGlu-C18 diacid])AQ[Aib]NFI[dE][αMeY]LQEGGPSSGEPPPEGT-NH2 [Example 525]	460 nM	10 nM	0.426 nM	2.07 nM	20.2 nM	0.0351 nM
H-Y[Aib]QGT[αMePhe(2-F)]TSD[4Pal][αMeS]I[αMeL]LD[Orn]K([γGlu-γGlu-C18 diacid])AQ[Aib]NFI[dE][αMeY]LQEGGPSSGEPPPEGTGE-NH2 [Example 527]	580 nM	6.99 nM	0.446 nM	2.6 nM	26.8 nM	0.0386 nM
H-Y[Aib]QGT[αMePhe(2-F)]TSD[4Pal][αMeS]I[αMeL]LD[Orn]K([γGlu-γGlu-C18 diacid])AQ[Aib]QFI[dE][αMeY]LQEGGPSSGEPPPEGTGE-NH2 [Example 529]	398 nM	6.59 nM	0.467 nM	1.39 nM	24.5 nM	0.0273 nM
H-Y[Aib]QGT[αMePhe(2-F)]TSD[4Pal][αMeS]I[αMeL]LD[Orn]K([γGlu-γGlu-C18 diacid])AQ[Aib][Orn]FI[dE]YLIEGGPSSGEPPPSGTEE-NH2 [Example 535]	238 nM	3.16 nM	0.418 nM	1.16 nM	29.9 nM	0.0183 nM
H-Y[Aib]QGT[αMePhe(2-F)]TSD[4Pal][αMeS]I[αMeL]LD[Orn]K([γGlu-γGlu-C18 diacid])AQ[Aib][Orn]FI[dE]YLIEGGPSSGEPPPSGTEEE-NH2 [Example 540]	405 nM	5.62 nM	0.686 nM	1.93 nM	38.2 nM	0.0296 nM
H-Y[Aib]QGT[αMePhe(2-F)]TSD[4Pal][αMeS]I[αMeL]LD[Orn]K([γGlu-γGlu-C18 diacid])AQ[Aib][Orn]FI[dE]YLIEGGPSSGEPPPSGTGE-NH2 [Example 523]	234 nM	3.79 nM	0.482 nM	0.869 nM	27.1 nM	0.021 nM
H-Y[Aib]QGT[αMePhe(2-F)]TSD[4Pal][αMeS]I[αMeL]LD[Orn]K([γGlu-γGlu-C18 diacid])AQ[Aib][Orn]FI[dE]YLLEGGPSSGEPPPSGTE-NH2 [Example 532]	157 nM	1.37 nM	0.577 nM	1.49 nM	47.3 nM	0.0159 nM
H-Y[Aib]QGT[αMePhe(2-F)]TSD[4Pal][αMeS]I[αMeL]LD[Orn]K([γGlu-γGlu-C18 diacid])AQ[Aib][Orn]FI[dE]YLSEGGPSSGEPPPSGTE-NH2 [Example 530]	1280 nM	17.1 nM	4.91 nM	63.7 nM	437 nM	0.874 nM
H-Y[Aib]QGT[αMePhe(2-F)]TSD[4Pal][αMeS]I[αMeL]LD[Orn]K([γGlu-γGlu-C18 diacid])AQ[Aib][Orn]FI[dE][αMeY]LAEGGPSSGEPPPSGAEE-NH2 [Example 591]	234 nM	4.67 nM	0.773 nM	3 nM	44.5 nM	0.0579 nM
H-Y[Aib]QGT[αMePhe(2-F)]TSD[4Pal][αMeS]I[αMeL]LD[Orn]K([γGlu-γGlu-C18 diacid])AQ[Aib][Orn]FI[dE][αMeY]LAEGGPSSGEPPPSGEEE-NH2 [Example 592]	195 nM	4.25 nM	1.12 nM	4.05 nM	55.6 nM	0.0971 nM
H-Y[Aib]QGT[αMePhe(2-F)]TSD[4Pal][αMeS]I[αMeL]LD[Orn]K([γGlu-γGlu-C18 diacid])AQ[Aib][Orn]FI[dE][αMeY]LAEGGPSSGEPPPSGGEE-NH2 [Example 590]	309 nM	4.34 nM	0.89 nM	4.25 nM	58.7 nM	0.105 nM
H-Y[Aib]QGT[αMePhe(2-F)]TSD[4Pal][αMeS]I[αMeL]LD[Orn]K([γGlu-γGlu-C18 diacid])AQ[Aib][Orn]FI[dE][αMeY]LAEGGPSSGEPPPSGSEE-NH2 [Example 589]	289 nM	4.11 nM	0.713 nM	3.83 nM	44.4 nM	0.0672 nM
H-Y[Aib]QGT[αMePhe(2-F)]TSD[4Pal][αMeS]I[αMeL]LD[Orn]K([γGlu-γGlu-C18 diacid])AQ[Aib][Orn]FI[dE][αMeY]LAEGGPSSGEPPPSGTE-NH2 [Example 544]	171 nM	2.71 nM	0.623 nM	2.4 nM	43 nM	0.041 nM
H-Y[Aib]QGT[αMePhe(2-F)]TSD[4Pal][αMeS]I[αMeL]LD[Orn]K([γGlu-γGlu-C18 diacid])AQ[Aib][Orn]FI[dE][αMeY]LAEGGPSSGEPPPSGTGE-NH2 [Example 545]	180 nM	2.71 nM	0.602 nM	2.74 nM	40.2 nM	0.0432 nM
H-Y[Aib]QGT[αMePhe(2-F)]TSD[4Pal][αMeS]I[αMeL]LD[Orn]K([γGlu-γGlu-C18 diacid])AQ[Aib][Orn]FI[dE][αMeY]LIEGGPSSGEPPPSEG-NH2 [Example 480]	65.5 nM	1.47 nM	0.215 nM	0.722 nM	8.39 nM	0.0107 nM
H-Y[Aib]QGT[αMePhe(2-F)]TSD[4Pal][αMeS]I[αMeL]LD[Orn]K([γGlu-γGlu-C18 diacid])AQ[Aib][Orn]FI[dE][αMeY]LQEGGPSSGEPPPEGEEE-NH2 [Example 588]	259 nM	4.72 nM	0.613 nM	2.86 nM	34.1 nM	0.0777 nM
H-Y[Aib]QGT[αMePhe(2-F)]TSD[4Pal][αMeS]I[αMeL]LD[Orn]K([γGlu-γGlu-C18 diacid])AQ[Aib][Orn]FI[dE][αMeY]LQEGGPSSGEPPPEGSEE-NH2 [Example 585]	436 nM	6.25 nM	0.601 nM	3.93 nM	38.6 nM	0.0801 nM
H-Y[Aib]QGT[αMePhe(2-F)]TSD[4Pal][αMeS]I[αMeL]LD[Orn]K([γGlu-γGlu-C18 diacid])AQ[Aib][Orn]FI[dE][αMeY]LQEGGPSSGEPPPSGTEE-NH2 [Example 572]	330 nM	3.48 nM	0.366 nM	3.13 nM	30.4 nM	0.0465 nM
H-Y[Aib]QGT[αMePhe(2-F)]TSD[4Pal][αMeS]I[αMeL]LD[Orn]K([γGlu-γGlu-C18 diacid])AQ[Aib][Orn]FI[dE][αMeY]LQEGGPSSGEPPPSGTEEE-NH2 [Example 573]	388 nM	4.02 nM	0.416 nM	3.15 nM	31.6 nM	0.0342 nM
